According to BindingDB's records for doi:10.1016/j.bmcl.2007.03.076 (Tanabe Research Laboratories Usa, 2007):

Molecular target: T1, Oxysterols receptor LXR-beta (Homo sapiens, UniProt P55055)
T1 sequence (P55055 whole entry): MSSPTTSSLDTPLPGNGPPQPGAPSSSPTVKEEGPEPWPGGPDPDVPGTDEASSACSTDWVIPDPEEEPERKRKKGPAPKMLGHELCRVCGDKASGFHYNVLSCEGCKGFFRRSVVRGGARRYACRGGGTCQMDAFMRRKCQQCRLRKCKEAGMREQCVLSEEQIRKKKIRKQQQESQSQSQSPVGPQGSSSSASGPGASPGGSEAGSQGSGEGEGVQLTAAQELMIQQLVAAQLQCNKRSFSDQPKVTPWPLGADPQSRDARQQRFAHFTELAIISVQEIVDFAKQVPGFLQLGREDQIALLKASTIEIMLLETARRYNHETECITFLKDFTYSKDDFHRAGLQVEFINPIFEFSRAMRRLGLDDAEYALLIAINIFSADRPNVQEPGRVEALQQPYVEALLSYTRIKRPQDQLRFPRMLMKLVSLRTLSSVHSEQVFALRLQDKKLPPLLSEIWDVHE
Assay: HTRF Cofactor Peptide Recruitment Assay
Details: pH 7.5; 22 °C
Experimental: Polyhistidine-tagged human LXR ligand-binding domain was mixed with the test compound, biotin-SRC1 peptide, streptavidin-allophycocyanin, and europium labeled anti-polyhistidine antibody in reaction buffer, and the mixture was incubated in a 384-well assay plate format. Time-resolved fluorescence was measured at 615 and 665 nm on a LJL Analyst plate reader. The ratio of 665/615 was used to calculate EC50 values of test compounds.

EC50: 210 nM
SMILES: CC(C)(C)OC(=O)n1c(-c2ccc3c(c2)CC(NS(=O)(=O)c2ccccc2)C3)cc2ccccc21 (stereo unspecified) [tert-butyl 2-(2-benzenesulfonamido-2,3-dihydro-1H-inden-5-yl)-1H-indole-1-carboxylate]
